Reference: patent publication US8716437B2 (priority 2007, dated 2014)

Experiments:
Assay type in all cases: binding
[1] = tested on: KcsA-1.3; experiment: Phage ELISA on immobilized KcsA-1.3; conditions: in words
Description: Panning was performed, in triplicate, on surfaces without a coating (none), and on immobilized KcsA-Kv1.3 receptors (KcsA-Kv1.3), wild-type KcsA receptors (KcsA-WT), and antiserum to sarafotoxin S6b (anti-S6b). The input ligands per well are 10^9, 10^8, 10^7. The ligands included: sarafotoxin S6b (upper panel FIG. 4), kaliotoxin-1 (KTX, middle row FIG. 4), no ligand helper phages (bottom row FIG. 4).
For each binding determination, 3 wells in a NUNC-Immuno MaxiSorp 96-Well plates were coated overnight at 4° C. with 1 ug of KcsA-1.3 or KcsA in 50 ul of 100 mM NaHCO3, 1 mM DDM, pH 9, then washed once with Tris-HC150 mM, NaCl-150 mM pH7.5 containing 0.1% Tween 20, 1 mM DDM (TBST). Wells were then blocked at room temperature with 200 ul of Tris 50 mM NaCl 150 mM pH 7.5, 1 mM DDM, (TBS) containing 0.5% BSA, then washed once with TBST. For each well, 108-1010 phages were added in 50 ul of TBS containing 0.5% BSA and incubated on a rotary shaker at room temperature for 2 hrs. Following five washes with TBST, 50 ul of anti-phage antibody-peroxidase conjugated TBST with 0.5% BSA was added and incubated on a rotary shaker for 2 hours at room temperature, then washed 5 times with TBST and twice with TBS. Fifty (50) ul of 1 step turbo-TMB-ELISA was added and the reaction is stopped by 50 μl of 2M H2SO4 and the absorbancy was read at 450 nm.

[2] = tested on: antiserum to sarafotoxin s6b (anti-S6b); experiment: Phage panning on immobilized antiserum to sarafotoxin s6b; conditions: mixture of five ligands, one round of panning
Text: A mixture of five ligands: (1) kaliotoxin-1; (2) sarafotoxin s6b; (3) Dendroaspis natriuretic peptide (DNP); (4) fasciculin-2; and (5) camel antibody (CVHH); were mixed and panned on purified receptors (KcsA-Kv1.3). The control was immobilized antiserum to sarafotoxin s6b (anti-S6b). Input and output ligands were verified by genotyping. In this system, shown in Table 6, a 3.6-fold enrichment is seen after one-round of panning.

[3] = tested on: KcsA-Kv1.3; experiment: Phage panning on purified immobilized KcsA-Kv1.3 (KcsA-1.3); conditions: mixture of five ligands
[4] = target: Kv1.3 (Homo sapiens, UniProt P22001); experiment: Phage panning on live cells (HEK, COS) expressing Kv1.3 channels; parameters: expressed in transfected cells; host or cells: HEK (HEK293) and COS cells; conditions: for enrichment of KTX, Kv1.3 transfected vs. vector cells: 5×10^11 phagemids; for OUTPUT KTX (%): mixture of KTX and nonspecific phages, one round of panning
Text: In another example, receptors may be expressed in cells. For example, cells may be stably or transiently transfected with one or more receptors can be utilized as expressed in native tissues (Clackson and Lowman, Phage display. Oxford University Press, 2004; Barbas et al., Phage display. A laboratory manual. Cold Spring Harbor Laboratory Press, 2001; Sambrook et al., Molecular Cloning: A Laboratory Manual. Vols 1-3. Cold Spring Harbor Laboratory Press, 1989). In one example, HEK (mammalian human embryonic kidney) and COS cells expressing wild-type Kv1.3 or Kv1.3-PDZ domain chimera were employed, the latter target allowing a “double” panning (e.g., as a control or to enhance binding affinity) using phages expressing kaliotoxin-1 and/or PDZ-binder domain.
Panning may be performed by the binding of ligands to the receptors, followed by washes and ligand recovery. In one example, panning is performed according to standard methods of phage display (Clackson and Lowman, Phage display. Oxford University Press, 2004; Barbas et al., Phage display. A laboratory manual. Cold Spring Harbor Laboratory Press, 2001). Panning may be repeated until the desired enrichment is achieved. In addition, libraries can be pre-depleted on surfaces or cells that contain no receptors or on a receptor where the putative ligand receptor domain may be directly or indirectly altered. Additionally, any and all conditions of panning may be varied, altered or changed to achieve optimal results, such as the isolation of a specific ligand. Panning variations include, but are not limited to, the presence of competing ligand(s), presence of excess target(s), length and temperature of binding, pre-absorption of the ligand library on one or more different receptor(s) or cells or surfaces, composition of binding solution (e.g., ionic strength), stringency of washing, and recovery procedures. Phages recovered from panning may be processed for further rounds of panning, functional analysis, and/or sequencing/genotyping to deduce the resulting ligands' amino acid sequence or biological properties (Clackson and Lowman, Phage display. Oxford University Press, 2004; Barbas et al., Phage display. A laboratory manual. Cold Spring Harbor Laboratory Press, 2001).
5×10^11 phagemids were added to the cell cultures in “B.”
A library of KTX-like ligands, with a calculated diversity of greater than 11,000, was created de novo. The library comprised approximately 8% KTX-like ligands and 92% non-KTX-like ligands. The library of ligands was screened on Kv1.3 receptors expressed in HEK and COS cells.
Transfection efficiency was monitored with cotransfection of gene encoding for the green fluorescence protein (GFP) and observing the fluorescence after 1-2 days following transfection.
KTX and mokatoxin-1 are Kv1.3 specific scorpion toxins. […] Following incubation of the cells with the phages, cells were subjected to wash to remove the unbound/weakly bound phages. The remaining bound phages were eluted from the cells and transformed into XL1 E. coli, and plated onto LB plates with antibiotic selecting for the phagemids.

[5] = HEK cells, kaliotoxin-1-phage 1 out of 10^10 phage

Chain of Kv1.3 (P22001 whole entry): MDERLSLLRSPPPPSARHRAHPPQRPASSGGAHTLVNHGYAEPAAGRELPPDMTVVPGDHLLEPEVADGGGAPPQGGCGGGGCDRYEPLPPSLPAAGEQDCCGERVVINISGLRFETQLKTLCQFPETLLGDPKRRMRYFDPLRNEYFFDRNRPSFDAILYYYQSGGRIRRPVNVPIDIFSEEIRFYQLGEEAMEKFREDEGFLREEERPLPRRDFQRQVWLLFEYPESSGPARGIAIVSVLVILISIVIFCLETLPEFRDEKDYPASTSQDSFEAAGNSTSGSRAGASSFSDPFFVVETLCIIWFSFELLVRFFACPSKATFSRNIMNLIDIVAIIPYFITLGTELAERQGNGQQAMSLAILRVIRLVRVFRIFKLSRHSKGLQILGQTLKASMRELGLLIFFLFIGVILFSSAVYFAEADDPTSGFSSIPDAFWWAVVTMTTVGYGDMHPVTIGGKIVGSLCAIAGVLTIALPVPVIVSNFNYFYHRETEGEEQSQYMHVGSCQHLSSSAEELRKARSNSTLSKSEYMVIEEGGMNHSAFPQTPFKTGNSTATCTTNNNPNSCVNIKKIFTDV

CC[C@H](C)[C@H](NC(=O)[C@H](CCC(=O)O)NC(=O)[C@@H](NC(=O)CN)C(C)C)C(=O)N[C@@H](CC(N)=O)C(=O)N[C@H](C(=O)N[C@@H](CCCCN)C(=O)N[C@H]1CSSC[C@@H]2NC(=O)[C@H](CCCCN)NC(=O)CNC(=O)[C@H](Cc3ccccc3)NC(=O)[C@H](CCCNC(=N)N)NC(=O)[C@H](CCSC)NC(=O)CNC(=O)[C@H](C)NC(=O)[C@H](CC(=O)O)NC(=O)[C@H](CCCCN)NC(=O)[C@@H]3CSSC[C@@H](C(=O)N[C@H](C(=O)N4CCC[C@H]4C(=O)N[C@@H](CCCCN)C(=O)O)[C@@H](C)O)NC(=O)[C@H](Cc4c[nH]cn4)NC(=O)[C@H](CSSC[C@H](NC(=O)[C@H](CCC(N)=O)NC(=O)[C@@H]4CCCN4C(=O)[C@H](CO)NC(=O)CNC(=O)[C@H](CO)NC1=O)C(=O)N[C@@H](CC(C)C)C(=O)N[C@@H](CCCCN)C(=O)N1CCC[C@H]1C(=O)N3)NC(=O)[C@H](CCCCN)NC(=O)[C@H](CCCNC(=N)N)NC(=O)[C@H](CC(N)=O)NC(=O)[C@H](CCSC)NC2=O)C(C)C [KTX, kaliotoxin-1]
binding of phage to KcsA-1.3 (KcsA-Kv1.3) [1]: specific binding | Output (% Ligands) Anti-S6b (n = 20) [2]: 0% | enrichment after one round of panning [3]: 3.6 fold | Output (% Ligands) KcsA-Kv.13 (n = 20) ([3]; one round of panning): 100% | enrichment of KTX, Kv1.3 transfected vs. vector cells ([4]; COS cells): ~10 fold | enrichment of KTX, Kv1.3 transfected vs. vector cells ([4]; HEK cells): ~20 fold | 2nd round (n = 20) % [4, 5]: 0% | 3rd round (n = 12) % [4, 5]: 58% | OUTPUT KTX (%) ([4]; input ratio 1/99, actual 5/95 (n = 20)): 26 (n = 20) % | OUTPUT KTX (%) ([4]; input ratio 10/90, actual 0/100 (n = 10)): 22 (n = 18) % | OUTPUT KTX (%) ([4]; input ratio 10/90, actual 7/93 (n = 30)): 30 (n = 30) %
